Experiment [1] deals with T1, 5HT2 receptor (Rattus norvegicus, UniProt P14842).
T1 construct: from tissue
The experiment can be described thus: spiroperidol binding test (5HT2 binding affinity). The following applies: [3H] spiroperidol binding; concentration of compound at 50% inhibition. The text has this:
As noted above, the compounds of Formula I are serotonin 5HT2 antagonists. […] In this test, 5HT2 receptors are exposed to both [^3H] spiroperidol, (a substance known to have a specific affinity for the receptor) and the test compound. The extent to which there is a decrease in binding of the [^3H] spiroperidol to the receptor is indicative of the affinity of the test compound for the 5HT2 receptor.
d) any reference to “5HT2 binding affinity” refers to the spiroperidol binding test as described by Peroutka et al., in Mol.Pharmacol., Vol. 16, pages 687-699 (1979).

Experiment [2] relates to preference for alcohol and cocaine. Particulars: rodent model of drug abuse; cited from earlier work.
The subject of experiment [3] is thrombus formation. The following applies: canine models; cited from earlier work.
Experiment [4] concerns coronary vessel constriction. The following applies: patients with stable angina; cited from earlier work.

Broadly, the IC50 is the concentration that inhibits the measured activity by half. Read a low IC50 as greater potency.

Where a name gives a salt, the structure may show the parent alone.

T1 sequence (P14842 whole entry): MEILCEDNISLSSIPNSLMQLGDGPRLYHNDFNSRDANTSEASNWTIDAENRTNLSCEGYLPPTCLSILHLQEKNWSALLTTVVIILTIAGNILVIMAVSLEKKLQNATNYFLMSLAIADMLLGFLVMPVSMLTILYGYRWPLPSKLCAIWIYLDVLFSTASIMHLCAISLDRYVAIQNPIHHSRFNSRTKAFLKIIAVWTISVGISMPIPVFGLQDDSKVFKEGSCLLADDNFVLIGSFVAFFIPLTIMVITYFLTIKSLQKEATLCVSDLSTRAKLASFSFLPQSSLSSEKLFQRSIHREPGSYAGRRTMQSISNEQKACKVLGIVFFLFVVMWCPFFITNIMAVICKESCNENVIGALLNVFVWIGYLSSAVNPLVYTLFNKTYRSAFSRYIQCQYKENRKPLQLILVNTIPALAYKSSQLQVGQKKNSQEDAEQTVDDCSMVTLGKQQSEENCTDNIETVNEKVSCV

The compound `O=C(CN1CCC(CN2C(=O)c3ccccc3C2=O)CC1)c1ccccc1` [Example 10, 2-[[1-[2-phenyl-2-oxoethyl]-4-piperidinyl]methyl]-1H-isoindole-1,3(2H)-dione monohydrochloride] returned a 50% inhibitory concentration (IC50) in experiment [1] of 13 nM.
Consider `O=C(CN1CCC(CN2C(=O)[C@H]3CCCC[C@H]3C2=O)CC1)c1ccc(F)cc1` [Example 4, cis-2-[[1-[2-(4-fluorophenyl)-2-oxoethyl]-4-piperidinyl]methyl]hexahydro-1H-isoindole-1,3(2H)-dione monohydrochloride], for which the 50% inhibitory concentration (IC50) in experiment [1] was 162 nM.
On the same count and under the same terms, for `O=C(CN1CCC(CN2C(=O)C3CC=CCC3C2=O)CC1)c1ccc(F)cc1` (stereo not drawn) [Example 3, 2-[[1-[2-(4-fluorophenyl)-2-oxoethyl]-4-piperidinyl]methyl]-3a,4,7,7a-tetrahydro-1H-isoindole-1,3(2H)-dione monohydrohydrochloride] the value was 206 nM.
`O=C(CN1CCC(CN2C(=O)C3C4C=CC(C4)C3C2=O)CC1)c1ccc(F)cc1` (stereo not drawn) [Example 6, 2-[[1-[2-(4-fluorophenyl)-2-oxoethyl]-4-piperidinyl]methyl]-3a,4,7,7a-tetrahydro-4,7-methano-1H-isoindole-1,3(2H)-dione monohydrochloride] registered a half-inhibitory concentration (IC50) in experiment [1] of 172 nM.
Same read-out and setting: for `O=C(CN1CCC(CN2C(=O)c3cccc(F)c3C2=O)CC1)c1ccc(F)cc1` [Example 11, 2-[[1-[2-(4-fluorophenyl)-2-oxoethyl]-4-piperidinyl]methyl]-4-fluoro-1H-isoindole-1,3(2H)-dione monohydrochloride] the value was 33 nM; for `Cc1ccc2c(c1)C(=O)N(CC1CCN(CC(=O)c3ccc(F)cc3)CC1)C2=O` [Example 8, 2-[[1-[2-(4-fluorophenyl)-2-oxoethyl]-4-piperidinyl]methyl]-5-methyl-1H-isoindole-1,3(2H)-dione monohydrochloride], 116 nM; for `O=C(CN1CCC(CN2C(=O)c3cccc4cccc(c34)C2=O)CC1)c1ccc(F)cc1` [Example 9, 2-[[1-[2-(4-fluorophenyl)-2-oxoethyl]-4-piperidinyl]methyl]-1H-benz[de]isoquinoline-1,3(2H)-dione monohydrochloride], 96 nM.
Still for that read-out and setting: the same measure for `O=C(CN1CCC(CN2C(=O)c3ccccc3C2=O)CC1)c1ccc(F)cc1` [Example 2, 2-[[1-[2-(4-fluorophenyl)-2-oxoethyl]-4-piperidinyl]methyl]-1H-isoindole-1,3(2H)-dione]: 13 nM.
With `Cc1nc2sccn2c(=O)c1CCN1CCC(=C(c2ccc(F)cc2)c2ccc(F)cc2)CC1` [ritanserin], the “preference for alcohol and cocaine” value in experiment [2] is “abolished the preference for both alcohol and cocaine”.
In the case of `O=C(c1ccc(F)cc1)C1CCN(CCn2c(=O)[nH]c3ccccc3c2=O)CC1` [Ketanserin], in experiment [3], the “prevention of thrombus formation” value is “extremely effective in preventing thrombus formation”. The coronary vessel constriction entry in experiment [4] was “blocked coronary vessel constriction”.
Take `O=C(CN1CCC(Cn2c(=O)[nH]c3ccccc3c2=O)CC1)c1ccc(F)cc1` [Example 12, 2-[[1-[2-(4-fluorophenyl)-2-oxoethyl]-4-piperidinyl]methyl]-benzoyleneurea]: in experiment [1], the concentration for half-maximal inhibition (IC50) came to 14.9 nM.
In the case of `O=C(CN1CCC(CN2C(=O)C3C4C=CC(CC4)C3C2=O)CC1)c1ccc(F)cc1` (stereo not drawn) [Example 1, 2-[[1-[2-(4-fluorophenyl)-2-oxoethyl]-4-piperidinyl]methyl]-3a,4,7,7a-tetrahydro-4,7-ethano-1H-isoindole-1,3(2H)-dione monohydrochloride], the half-inhibitory concentration (IC50) in experiment [1] came to 48 nM.
In experiment [1], `O=C(CN1CCC(CN2C(=O)C(c3ccccc3)=C(c3ccccc3)C2=O)CC1)c1ccc(F)cc1` [Example 7, 1-[[1-[2-(4-fluorophenyl)-2-oxoethyl]-4-piperidinyl]methyl]-3,4-diphenyl-1H-pyrrole-2,5-dione monohydrohydrochloride] registered an IC50 of 307 nM.
`O=C(CN1CCC(CN2C(=O)[C@@H]3CCCC[C@H]3C2=O)CC1)c1ccc(F)cc1` (relative stereo) [Example 5, trans-2-[[1-[2-(4-fluorophenyl)-2-oxoethyl]-4-piperidinyl]methyl]hexahydro-1H-isoindole-1,3(2H)-dione monohydrochloride]: in experiment [1], the IC50 came to 76 nM.

Values taken from patent US20030083325A1, “Serotonin antagonists” (priority 1992, published 2003).
